The conditions of data set [1]: cited from earlier work.
The nature of data set [2]: blood plasma concentration of veliparib against time, immediate release 400 mg twice a day. It counts as in vivo. Particulars: 10 x 40 mg twice a day, daily dose 800 mg. From the text: The term peak plasma concentration is Cmax in blood plasma observed after administration. The term trough plasma concentration is Cmin in blood plasma observed after administration and just prior to the administration of a subsequent dose in a given dosage regimen. The veliparib plasma concentration can be determined according to the approach described in Mostafa et al., Cancer Chemother Pharmacol (2014) 74: 583-591. Pharmacokinetic terms have the typical meaning as recognized in the art and in case of doubt are to be interpreted according to the European Pharmacopoeia Version 8.8.
The present inventors have realized that the In-vivo plasma concentration profile of veliparib when administered as immediate release dosage forms at 400 mg BID, can be such that the blood plasma fluctuations are quite high. […] Thus, undesireably high peak concentrations are obtained in order to keep the trough concentration above a therapeutic threshold. In contrast, the extended release dosage form of the present invention enables the provision of therapeutically effective trough concentrations at all times without attaining such a high peak concentration. Moreover, when the extended release dosage form of the present invention is administered twice daily, even an overall dose reduction can be obtained while at the same time keeping the through concentration above the therapeutic threshold.
In this experiment 10 tablets containing 40 mg veliparib each prepared in accordance with Comparative example 1 are administered twice a day, 12h apart, to meet a daily dose of 800 mg. A plot displaying the pharmacokinetic behaviour of veliparib is obtained by plotting the blood plasma concentration of veliparib against time (Figure 1). […] The Cmax/Cmin ratio for veliparib is almost 7.

`C[C@]1(c2nc3c(C(N)=O)cccc3[nH]2)CCCN1` [veliparib, 2-((R)-2-Methylpyrrolidin-2-yl)-1H-benzimidazole-4-carboxamide]: the side effects reported entry in data set [1] (immediate release tablet at 2 x 400 mg per day) was “anemia, fatigue, nausea, pain and cough”. Moreover, the elimination half-life entry in data set [1] (in vivo) is “about 6 hours”. Moreover, in data set [2], the Cmax/Cmin ratio entry was “about 7” and the Cmin entry is given as “around 0.5 µg/ml”. The Cmax (commonly the maximum level reached in the sampled fluid or tissue) in data set [2] (plasma, po, 400 mg) was around 3500 ng/mL.

These data come from patent publication EP3275434A1, “AN EXTENDED RELEASE ORAL DOSAGE FORM” (SANDOZ AG, priority 2016, dated 2018).
